Measured values taken from US5593970A, “Heterocyclic anthracycline analogs” (priority 1994, dated 1997).
Where a name gives a salt, the structure may show the parent alone. Read-outs that look alike come from different tables or passages of the source.

Legend:
Assay in all cases: Microculture tetrazolium assay
Assay type in all cases: cell-based
SKOV3 = conditions: read-out: IC50
SKVLB = conditions: for VLB/OV3: IC50 ratio SKVLB/SKOV3; for IC50: SKVLB, read-out: IC50
T47D = system: T47D
LOX = conditions: read-out: IC50
HT29 = system: HT29
[1] = Homo sapiens, HT-29, HT29, read-out: IC50

| Compound | IC50 (SKOV3; SKOV3) | VLB/OV3 (SKVLB) | IC50 (SKVLB) | IC50 (T47D; read-out: IC50) | IC50 (LOX) | IC50 (HT29; HT29, read-out: IC50) | IC50 (SKOV3; Homo sapiens, SK-OV-3, SKOV3) | IC50 (T47D; Homo sapiens, read-out: IC50) | IC50 (HT29; [1]) | IC50 (HT29; Homo sapiens, HT-29, HT29) | IC50 (T47D; Homo sapiens) |
| --- | --- | --- | --- | --- | --- | --- | --- | --- | --- | --- | --- |
| 1S,3R-Methyl(1-[2',3',6'-trideoxy-3'-trifluoroacetamido-4'-hydroxy-1,5-dihydro-L-lyxohexopyranose-2-yl)-6,11-dioxo-3,4,5,12-tetrahydroanthraceno[2,3- c]pyran-3-yl)ketone [BCH-2156] | 3410 nM | 1.57 | 5360 nM | 2710 nM | 375 nM | 1190 nM |  |  |  |  |  |
| CC(=O)C1CC2=C(C(=O)c3cc4ccccc4c(O)c3C2=O)C(O[C@H]2C[C@H](NC(=O)C(F)(F)F)[C@H](OC(=O)c3ccc([N+](=O)[O-])cc3)[C@H](C)O2)O1 (mixture of isomers) [BCH-1122, (1S',1R,3S) and (1'S,1S,3R)-methyl (6-hydroxy-1-(2',3',6'-trideoxy-3'-trifluoroacetamido-4'-O-p-nitrobenzoyl-L-lyxohexopyranose)-6-hydroxy-5,12-dioxo-3,4,5,12-tetra-hydroanthraceno[2,3-C]pyran-3-yl) ketone] |  | 3.44 | 14700 nM |  | 2140 nM |  | 4270 nM | 6790 nM | > 100000 nM |  |  |
| CC(=O)C1Cc2c(O)c3c(c(O)c2C(O[C@H]2C[C@H](NC(=O)C(F)(F)F)[C@H](O)[C@H](C)O2)O1)C(=O)c1ccccc1C3=O (mixture of isomers) [BCH-1131, (1'S,1S,3R) and (1'S,1R,3S)-Methyl-[5,12-dihydroxy-1-(2',3',6'-trideoxy-3'-trifluoroacetamido-4'-hydroxy-L-lyxohexopyranose)-6,11-dioxo-3,4,6,11,tetrahydroanthraceno-(2,3-C)pyran-3-yl]ketone] |  | 2.45 | 11200 nM |  | 4830 nM |  | 4580 nM | 9480 nM | 6930 nM |  |  |
| COC(=O)[C@@H](N)COC1OC(C(C)=O)CC2=C1C(=O)c1cc3ccccc3c(O)c1C2=O (mixture of isomers) [BCH-1657, (1S,2'S,3R) and (1R, 2'S,3S)-Methyl-{6-hydroxyl-1[O-serinemethyl ester]-5,12-dioxo-3,4,5,12-tetrahydroanthraceno-[2,3-c]pyran-3-yl}ketone hydrochloride salt] |  | 7.42 | 4250 nM |  | 2410 nM |  | 573 nM | 3110 nM | 2590 nM |  |  |
| C[C@@H]1O[C@@H](O[C@H]2O[C@H](C(C)(F)F)CC3=C2C(=O)c2cc4ccccc4c(O)c2C3=O)C[C@H](O)[C@@H]1O (mixture of isomers) [BCH-1662, (1'S,1S,3S) and (1'S,1R, 3R)-5,12-dioxo-3-(1,1-difluoroethyl)-6-hydroxy-1-(2',6'-dideoxy-L-lyxohexopyranose)-3,4,5,12-tetrahydroanthraceno-[2,3-c]-pyran] |  | 1.04 | 89900 nM |  | 38100 nM |  | 86600 nM | 59700 nM | 79600 nM |  |  |
| C[C@@H]1O[C@@H](O[C@@H]2O[C@@H](C(C)(F)F)CC3=C2C(=O)c2cc4ccccc4c(O)c2C3=O)C[C@H](O)[C@@H]1O (mixture of isomers) [BCH-1663, (1'S,1S,3S) and (1'S,1R, 3R)-5,12-dioxo-3-(1,1-difluoroethyl)-6-hydroxy-1-(2',6'-dideoxy-L-lyxohexopyranose)-3,4,5,12-tetrahydroanthraceno-[2,3-c]-pyran] |  | 1.16 | 32400 nM |  | 31200 nM |  | 27900 nM | 47900 nM | 31300 nM |  |  |
| COCC1Cc2c(O)c3c(c(O)c2C(O[C@H]2C[C@H](N)[C@H](O)[C@H](C)O2)O1)C(=O)c1ccccc1C3=O (mixture of isomers) [BCH-1992, (1'S,1S,3R) and (1'S,1R,3S)-5,12-dihydroxy-3-methoxymethyl-1-(2',3',6'-trideoxy-3'-amino-L-lyxohexopyranose)-1,2,3,4-tetrahydro-(2-oxygen)naphthacene-6,11-dione hydrochloride] |  | 4.81 | 2740 nM |  | 666 nM |  | 570 nM | 807 nM |  | 183 nM |  |
| C[C@@H]1O[C@@H](O[C@H]2O[C@H](COc3ccccc3)CC3=C2C(=O)c2cc4ccccc4c(O)c2C3=O)C[C@H](NC(=O)C(F)(F)F)[C@@H]1O (mixture of isomers) [BCH-2048, (1'S,1R,3S) and (1'S,1S,3R)-5,12-dioxo-6-hydroxy-3-phenyloxymethyl-1-(2',3',6'-trideoxy-3'-trifluoroacetamido-L-lyxohexopyranose)-3,4,5,12-tetrahydroanthraceno-[2,3-c]-pyran] |  | 2.36 | 10300 nM |  | 1770 nM |  | 4360 nM | 5720 nM | 6380 nM |  |  |
| C[C@@H]1O[C@@H](OC2OC(C#N)Cc3c(O)c4c(c(O)c32)C(=O)c2ccccc2C4=O)C[C@H](NC(=O)C(F)(F)F)[C@@H]1O (mixture of isomers) [BCH-2055, (1'S,1R,3S) and (1'S,1S,3R)(5,12-Dihydroxy-1-(2',3',6'-trideoxy-3'-trifluoroacetamido-4'-hydroxy-L-lyxohexopyranose)-6,11-dioxo-3,4,5,12-tetrahydroanthraceno-[2,3-c]pyran-3-yl)nitrile] |  | 2.85 | 2560 nM |  | 1130 nM |  | 898 nM |  | 471 nM |  | 3510 nM |
| C[C@@H]1O[C@@H](OC2OC(C#N)Cc3c(O)c4c(c(O)c32)C(=O)c2ccccc2C4=O)C[C@H](N)[C@@H]1O (mixture of isomers) [BCH-2056, (1'S,1R,3S) and (1'S,1S,3R)(5,12-Dihydroxy-1-(2',3',6'-trideoxy-3'-amino-4'-hydroxy-L-lyxohexopyranose)-6,11-dioxo-3,4,5,12-tetrahydroanthraceno-[2,3-c]pyran-3-yl)nitrile] |  | 3.50 | 598 nM |  | 170 nM |  | 171 nM | 271 nM | 83.2 nM |  |  |
| C[C@@H]1O[C@@H](O[C@H]2O[C@H](COc3ccccc3)Cc3c(O)c4c(c(O)c32)C(=O)c2ccccc2C4=O)C[C@H](N)[C@@H]1O (mixture of isomers) [BCH-2058, (1'S,1R,3S) and (1'S,1S,3R)-5,12-dihydroxy-3-phenyloxymethyl-1-(2',3',6'-trideoxy-3'-amino-L-lyxohexopyranose)-1,2,3,4-tetrahydro-(2-oxygen)-naphthacene-6,11-dione-hydrochloride] |  | 1.04 | 407 nM |  | 226 nM |  | 392 nM | 490 nM | 163 nM |  |  |
| C[C@@H]1O[C@@H](O[C@@H]2O[C@@H](COc3ccccc3)Cc3c(O)c4c(c(O)c32)C(=O)c2ccccc2C4=O)C[C@H](N)[C@@H]1O (mixture of isomers) [BCH-2059, (1'S,1R,3S) and (1'S,1S,3R)-5,12-dihydroxy-3-phenyloxymethyl-1-(2',3',6'-trideoxy-3'-amino-L-lyxohexopyranose)-1,2,3,4-tetrahydro-(2-oxygen)-naphthacene-6,11-dione-hydrochloride] |  | 1.24 | 306 nM |  | 209 nM |  | 247 nM | 442 nM | 156 nM |  |  |
